According to patent US7365082B2, “N-(substituted arylmethyl)-4-(disubstituted methyl)piperidines and piperazines” (Bayer CropScience AG, priority 2002, dated 2008):

Test system: tobacco budworm (Heliothis virescens [Fabricius])
Test: surface-treated diet test against tobacco budworm
Assay type: in vivo
Details: 0.25 millimoles of candidate insecticide on the surface of the diet, second instar larvae, five-day exposure; for Percent Mortality: compared to the total number of insects infested; for Percent Growth Inhibition: inhibition of insect weight relative to untreated controls
Procedure: Candidate insecticides were evaluated for activity against the tobacco budworm (Heliothis virescens [Fabricius]) in a surface-treated diet test.
In this test one mL of molten (65-70° C.) wheat germ-based artificial diet was pipetted into each well of a four by six (24 well) multi-well plate (ID# 430345-15.5 mm dia.×17.6 mm deep; Corning Costar Corp., One Alewife Center, Cambridge, Mass. 02140). The diet was allowed to cool to ambient temperature before treatment with candidate insecticide.
For a determination of insecticidal activity, solutions of the candidate insecticides were prepared for testing using a Packard 204DT Multiprobe® Robotic System (Packard Instrument Company, 800 Research Parkway, Meriden, Conn. 06450), in which the robot first diluted a standard 50 millimolar DMSO solution of candidate insecticide with a 1:1 water/acetone solution (V/V) in a ratio of 1:7 stock solution to water/acetone. The robot subsequently pipetted 40 microliters of the so-prepared solution onto the surface of the diet in each of three wells in the 24 multi-well plate. The process was repeated with solutions of seven other candidate insecticides. Once treated, the contents of the multi-well plate were allowed to dry, leaving 0.25 millimoles of candidate insecticide on the surface of the diet, or a concentration of 0.25 millimolar. Appropriate untreated controls containing only DMSO on the diet surface were also included in this test.
For evaluations of the insecticidal activity of a candidate insecticide at varying rates of application, the test was established as described above using sub-multiples of the standard 50 millimolar DMSO solution of candidate insecticide. For example, the standard 50 millimolar solution was diluted by the robot with DMSO to give 5, 0.5, 0.05, 0.005, 0.0005 millimolar, or more dilute solutions of the candidate insecticide. In these evaluations there were six replicates of each rate of application placed on the surface of the diet in the 24 multi-well plate, for a total of four rates of application of candidate insecticide in each plate.
In each well of the test plate was placed one second instar tobacco budworm larvea, each weighing approximately five milligrams. After the larvae were placed in each well, the plate was sealed with clear polyfilm adhesive tape. The tape over each well was perforated to ensure an adequate air supply. The plates were then held in a growth chamber at 25° C. and 60% relative humidity for five days (light 14 hours/day).
After the five-day exposure period insecticidal activity for each rate of application of candidate insecticide was assessed as percent inhibition of insect weight relative to the weight of insects from untreated controls, and percent mortality when compared to the total number of insects infested.
The test compounds of formula I are identified by numbers that correspond to those in Table 1.

## CCCOc1ccc(CN2CCC(C(=O)c3ccc(OC(F)(F)F)cc3)CC2)cc1 [Compound 43]
  Percent Mortality: 100%
  Percent Growth Inhibition: 100%

## Cn1nnc(-c2ccc(CN3CCC(C(=NNc4ccc(OC(F)(F)F)cc4)c4ccc(OC(F)(F)F)cc4)CC3)cc2)n1 [Compound 123]
  Percent Mortality: 100%
  Percent Growth Inhibition: 100%

## Cn1nnc(-c2ccc(CN3CCC(C(=NNC(=O)c4cccc(F)c4)c4ccc(OC(F)(F)F)cc4)CC3)cc2)n1 [Compound 142]
  Percent Mortality: 67%
  Percent Growth Inhibition: 100%

## Cn1nnc(-c2ccc(CN3CCC(C(=NNC(=O)c4ccc(Cl)cc4)c4ccc(Cl)cc4)CC3)cc2)n1 [Compound 138]
  Percent Mortality: 0%
  Percent Growth Inhibition: 14%

## CCn1nnc(-c2ccc(CN3CCC(C(=NNc4ccc(C(F)(F)F)cc4)c4ccc(OC(F)(F)F)cc4)CC3)cc2)n1 [Compound 122]
  Percent Mortality: 100%
  Percent Growth Inhibition: 96%

## O=C(NN=C(c1ccc(OC(F)(F)F)cc1)C1CCN(Cc2ccc(Oc3ccccn3)cc2)CC1)c1ccc(C(F)(F)F)cc1 [Compound 132]
  Percent Mortality: 83%
  Percent Growth Inhibition: 100%

## Cn1nnc(-c2ccc(CN3CCC(C(=NNC(=O)c4ccc(OC(F)(F)F)cc4)c4ccc(OC(F)(F)F)cc4)CC3)cc2)n1 [Compound 148]
  Percent Mortality: 100%
  Percent Growth Inhibition: 100%

## Cn1nnc(-c2ccc(CN3CCC(C(=NNC(=O)c4ccc(Br)cc4)c4ccc(OC(F)(F)F)cc4)CC3)cc2)n1 [Compound 140]
  Percent Mortality: 100%
  Percent Growth Inhibition: 100%

## CC(C)NN=C(c1ccc(C(F)(F)F)cc1)C1CCN(Cc2ccc(-c3nnn(C)n3)cc2)CC1 [Compound 91]
  Percent Mortality: 0%
  Percent Growth Inhibition: 79%

## CCCOc1ccc(CN2CCC(C(=NNc3ccc(OC(F)(F)F)cc3)c3ccc(OC(F)(F)F)cc3)CC2)cc1 [Compound 97]
  Percent Mortality: 100%
  Percent Growth Inhibition: 100%

## CCn1nnc(-c2ccc(CN3CCC(C(=NNCc4ccc(OC(F)(F)F)cc4)c4ccc(OC(F)(F)F)cc4)CC3)cc2)n1 [Compound 128]
  Percent Mortality: 0%
  Percent Growth Inhibition: 96%

## Cn1nnc(-c2ccc(CN3CCC(C(=NNC(=O)c4cccc(Cl)c4)c4ccc(OC(F)(F)F)cc4)CC3)cc2)n1 [Compound 137]
  Percent Mortality: 100%
  Percent Growth Inhibition: 100%

## O=C(c1ccc(OC(F)(F)F)cc1)C1CCN(Cc2ccc(F)cc2)CC1 [Compound 27]
  Percent Mortality: 0%
  Percent Growth Inhibition: 97%

## [O-][N+]1(Cc2ccc(Oc3ncccn3)cc2)CCN(C(c2ccc(Cl)cc2)c2ccc(Cl)cc2)CC1 [Compound 178]
  Percent Mortality: 0%
  Percent Growth Inhibition: 100%

## O=C(NN=C(c1ccc(OC(F)(F)F)cc1)C1CCN(Cc2ccc(Oc3ccccn3)cc2)CC1)c1ccc(Cl)cc1 [Compound 131]
  Percent Mortality: 50%
  Percent Growth Inhibition: 100%

## CCn1nnc(-c2ccc(CN3CCC(C(=NNc4ccc(C(F)(F)F)cc4)c4ccc(C(F)(F)F)cc4)CC3)cc2)n1 [Compound 118]
  Percent Mortality: 100%
  Percent Growth Inhibition: 96%

## FC(F)(F)c1ccc(C(c2ccc(C(F)(F)F)cc2)N2CCN(Cc3ccc(Oc4ncccn4)cc3)CC2)cc1 [Compound 169, 2-{4-[(4-{bis[4-(trifluoromethyl)phenyl]methyl}piperazinyl)methyl]phenoxy}pyrimidine]
  Percent Growth Inhibition: 100%

## Cc1ccc(C(=O)NN=C(c2ccc(OC(F)(F)F)cc2)C2CCN(Cc3ccc(-c4nnn(C)n4)cc3)CC2)cc1 [Compound 145]
  Percent Mortality: 100%
  Percent Growth Inhibition: 100%

## [O-][N+]1(Cc2ccc(Oc3ccccc3F)cc2)CCN(C(c2ccc(OC(F)(F)F)cc2)c2ccc(OC(F)(F)F)cc2)CC1 [Compound 172]
  Percent Mortality: 100%
  Percent Growth Inhibition: 100%

## COc1ccc(CN2CCC(C(=NNc3ccc(OC(F)(F)F)cc3)c3ccc(OC(F)(F)F)cc3)CC2)cc1 [Compound 96]
  Percent Mortality: 100%
  Percent Growth Inhibition: 96%

## CCn1nnc(-c2ccc(CN3CCC(C(=NNc4ccc(S(N)(=O)=O)cc4)c4ccc(OC(F)(F)F)cc4)CC3)cc2)n1 [Compound 125]
  Percent Mortality: 100%
  Percent Growth Inhibition: 100%

## CCn1nnc(-c2ccc(CN3CCC(C(=Cc4ccc(OC(F)(F)F)cc4)c4ccc(Cl)cc4)CC3)cc2)n1 [Compound 94]
  Percent Mortality: 100%
  Percent Growth Inhibition: 100%

## CCn1nnc(-c2ccc(CN3CCC(C(=NNc4ccccn4)c4ccc(OC(F)(F)F)cc4)CC3)cc2)n1 [Compound 92]
  Percent Mortality: 0%
  Percent Growth Inhibition: 45%

## CCn1nnc(-c2ccc(CN3CCC(/C(=N\NC(=O)c4ccc(OC(F)(F)F)cc4)c4ccc(OC(F)(F)F)cc4)CC3)cc2)n1 [Compound 149, N-[1-aza-2-(1-{[4-(2-ethyl(1,2,3,4-tetraazol-5-yl))phenyl]methyl}(4-piperidyl))-2-[4-(trifluoromethoxy)phenyl]vinyl][4-(trifluoromethoxy)phenyl]carboxamide]
  Percent Mortality: 100%
  Percent Growth Inhibition: 96%

## Cn1nnc(-c2ccc(CN3CCC(C(=NNC(=O)c4ccc(Cl)cc4)c4ccc(OC(F)(F)F)cc4)CC3)cc2)n1 [Compound 139]
  Percent Mortality: 100%
  Percent Growth Inhibition: 100%

## CCn1nnc(-c2ccc(CN3CCC(C(=NNc4ccc(OC(F)(F)F)cc4)c4ccc(C(F)(F)F)cc4)CC3)cc2)n1 [Compound 119]
  Percent Mortality: 100%
  Percent Growth Inhibition: 100%

## CCn1nnc(-c2ccc(CN3CCC(C(=NNc4ccc(OC(F)(F)F)cc4)c4ccc(OC(F)(F)F)cc4)CC3)cc2)n1 [Compound 124]
  Percent Mortality: 100%
  Percent Growth Inhibition: 100%

## CCn1nnc(-c2ccc(CN3CCC(C(=NNc4cccc(C(F)(F)F)c4)c4ccc(OC(F)(F)F)cc4)CC3)cc2)n1 [Compound 121]
  Percent Mortality: 100%
  Percent Growth Inhibition: 100%

## CC(C)OC(=O)Nc1ccc(C[N+]2([O-])CCN(C(c3ccc(C(F)(F)F)cc3)c3ccc(C(F)(F)F)cc3)CC2)cc1 [Compound 174]
  Percent Mortality: 100%
  Percent Growth Inhibition: 100%

## Cn1nnc(-c2ccc(CN3CCC(C(=O)c4ccc(OC(F)(F)F)cc4)CC3)cc2)n1 [Compound 67]
  Percent Mortality: 100%
  Percent Growth Inhibition: 95%

## [O-][N+]1(Cc2ccc(Oc3ccccn3)cc2)CCN(C(c2ccc(Cl)cc2)c2ccc(C(F)(F)F)cc2)CC1 (stereo not shown) [Compound 176]
  Percent Mortality: 100%
  Percent Growth Inhibition: 100%

## CCn1nnc(-c2ccc(CN3CCC(C(=NNCc4ccc(C(F)(F)F)cc4)c4ccc(OC(F)(F)F)cc4)CC3)cc2)n1 [Compound 127]
  Percent Mortality: 100%
  Percent Growth Inhibition: 100%

## [O-][N+]1(Cc2ccc(Oc3ncccn3)cc2)CCN(C(c2ccc(Cl)cc2)c2ccc(C(F)(F)F)cc2)CC1 (stereo not shown) [Compound 179]
  Percent Mortality: 100%
  Percent Growth Inhibition: 100%

## CCn1nnc(-c2ccc(CN3CCC(C(=O)c4ccc(OC(F)(F)F)cc4)CC3)cc2)n1 [Compound 72, 1-{[4-(2-ethyl(1,2,3,4-tetraazol-5-yl))phenyl]methyl}(4-piperidyl)4-(trifluoromethoxy)phenyl ketone]
  Percent Growth Inhibition: 95%

## Cn1nnc(-c2ccc(CN3CCC(C(=NNC(=O)c4ccc(I)cc4)c4ccc(OC(F)(F)F)cc4)CC3)cc2)n1 [Compound 144]
  Percent Mortality: 100%
  Percent Growth Inhibition: 100%

## [O-][N+]1(Cc2ccc(Oc3ccccn3)cc2)CCN(C(c2ccc(C(F)(F)F)cc2)c2ccc(C(F)(F)F)cc2)CC1 [Compound 177]
  Percent Mortality: 100%
  Percent Growth Inhibition: 100%

## [O-][N+]1(Cc2ccc(Oc3ncccn3)cc2)CCN(C(c2ccc(C(F)(F)F)cc2)c2ccc(C(F)(F)F)cc2)CC1 [Compound 180, 2-{4-[(4-{bis[4-(trifluoromethyl)phenyl]methyl}1-oxypiperazinyl)methyl]phenoxy}pyrimidine]
  Percent Mortality: 100%
  Percent Growth Inhibition: 100%

## CCn1nnc(-c2ccc(CN3CCC(C(=NNc4ccccc4C(F)(F)F)c4ccc(OC(F)(F)F)cc4)CC3)cc2)n1 [Compound 120]
  Percent Mortality: 0%
  Percent Growth Inhibition: 40%

## CCn1nnc(-c2ccc(CN3CCC(C(=NNc4ccc(C(C)C)cc4)c4ccc(OC(F)(F)F)cc4)CC3)cc2)n1 [Compound 114]
  Percent Mortality: 100%
  Percent Growth Inhibition: 100%
